Legend:
[1] = test system: CXCR3; assay: CXCR3 expression in activated primary murine T cells (flow cytometry); type: cell-based, B6 mice; conditions: anti-CD3/CD28 activated, 3 days, dose-dependent (0.32-1000 nM)
From the text: To identify the top candidates whose effects on GvHD will be further tested in vivo, we next screened the WU derivatives by evaluating their functional inhibitory activity on the expression of CXCR3 in primary murine T cells activated by anti-CD3/CD28 beads. CXCR3 is a chemokine receptor and surrogate marker of IFNGR-JAK1/JAK2 signaling.
Figure 3 Inhibitory effect of WU derivatives on the expression of CXCR3 compared to commercially available JAK inhibitors in primary murine T cells. Primary murine T cells were isolated from B6 mice and treated with WU derivatives or known JAK inhibitors (in the order of doses of each drug from the left: 0, 0.32, 1.6, 8, 40, 200, 1000 nM) in the presence of anti-CD3/CD28 activators. After 3 days, the expression of CXCR3 on (A) CD3, (B) CD4, and (C) CD8 T cells was determined by flow cytometry.
T cells from in vitro primary murine T cell culture, fresh peripheral blood, or whole splenocytes were analyzed according to cell surface and intracellular markers. Surface markers were directly stained with flow antibodies for 20 min at 4 °C. For intracellular staining (FOXP3 and T-bet), cells were fixed and permeabilized after surface staining using appropriate buffers (One-step intracellular nuclear protein staining protocol, eBioscience, San Diego, CA, USA) and stained with flow antibodies. The antibodies used for flow cytometric analyses for mouse cells were as follows: FOXP3, T-BET, and CD183 (eBioscience, San Diego, CA, USA); CD3, H2-Kb, H2-Kd, CD4, B220, CD11b, CD11c, Ly6C, and DEC205 (BioLegend, San Diego, CA); and CD8, CD45.2, CD80, and Ly6G (BD Pharmingen, San Jose, CA, USA). All cells were run on a ZE5 Cell Analyzer (BD Biosciences, Mountain View, CA, USA) or Attune® NxT (Thermofisher Scientific, Waltham, MA, USA) and analyzed with the FlowJo software, version 10.9.0 (FlowJo LLC., Ashland, OR, USA). […]

[2] = test system: GvHD; assay: Preclinical mouse model of allo-HCT (GvHD); type: in vivo, Balb/c recipient mice; conditions: for % of recipient and donor BM-derived APCs in spleens / % of CD80-expressing donor-derived APCs in spleens / % of Tregs in the spleens: 20 mg/kg s.c., day 6 after allo-HCT; for % of recipient and donor BM-derived APCs in spleens: vs control
From the text: To determine the potential of WU4 and WU8 in preventing GvHD, we performed allo-HCT in which 5 × 10^6 T cell-depleted bone marrow (TCD-BM; CD45.1+) and 5 × 10^5 splenic pan T cells (CD45.2+) obtained from B6 mice were transplanted into lethally irradiated (900 cGy on day −1) Balb/c allogeneic recipient mice on day 0. […]. […] Among monocyte subsets, we only considered classical (LyG6^−CD11b^+Ly6C^high) and intermediate monocytes (LyG6^−CD11b^+Ly6C^middle) as APCs, excluding non-classical monocytes (LyG6^−CD11b^+Ly6C^low) due to their anti-inflammatory function, which downregulates antigen presentation during inflammation. […]
Figure 5 In vivo administration of WU4 and WU8 reduces GvHD by increasing % of Tregs while suppressing % of APCs and costimulatory proteins on APCs after allo-HCT. Allo-HCT was performed as follows: 5 × 10^6 TCD-BM (CD45.1+) and 5 × 10^5 splenic T cells (CD45.2+) obtained from B6 mice were transplanted on day 0 into lethally irradiated (900 cGy on day −1) Balb/c allogeneic recipient mice. TCD-BM-only group served as a no-GvHD control. […] (A,B) The mice were monitored for survival and GvHD signs. (C–F) Whole splenocytes were analyzed for % of Tregs, recipient/BM-derived APCs, and CD80-expressing APCs on day 6 after allo-HCT. LyG6^−CD11b^+Ly6C^high and LyG6^−CD11b^+Ly6C^middle served as classical and intermediate monocyte subsets. NT: neutrophils. * p < 0.05, ** p < 0.01, and *** p < 0.001. All error bars are represented as mean ± standard deviation.
Allo-HCT was performed as previously described. Briefly, BALB/c mice were used as recipients and received 9 Gy total body irradiation on day −1, then were transplanted with 5 × 10^6 T cell-depleted bone marrow (TCD-BM) cells from B6 (CD45.1+) mice along with 0.5 × 10^6 splenic T cells from B6 (CD45.2+) mice on day 0. Mouse TCD-BM and splenic T cells were prepared using an EasySep mouse CD90.2 positive selection kit II and an EasySep mouse T cell isolation kit ([…] Technologies, Cambridge, MA, USA), respectively.
GvHD clinical scores were assessed twice per week by a scoring system incorporating five clinical criteria: weight loss (diarrhea scored 1 regardless of weight change), posture (hunching), mobility, fur texture, and skin integrity, as previously described. Individual mice were scored from 0 to 2 for each criterion and were sacrificed with GvHD scores of 6 or above, following our approved animal protocol.
T cells from in vitro primary murine T cell culture, fresh peripheral blood, or whole splenocytes were analyzed according to cell surface and intracellular markers. Surface markers were directly stained with flow antibodies for 20 min at 4 °C. For intracellular staining (FOXP3 and T-bet), cells were fixed and permeabilized after surface staining using appropriate buffers (One-step intracellular nuclear protein staining protocol, eBioscience, San Diego, CA, USA) and stained with flow antibodies. The antibodies used for flow cytometric analyses for mouse cells were as follows: FOXP3, T-BET, and CD183 (eBioscience, San Diego, CA, USA); CD3, H2-Kb, H2-Kd, CD4, B220, CD11b, CD11c, Ly6C, and DEC205 (BioLegend, San Diego, CA); and CD8, CD45.2, CD80, and Ly6G (BD Pharmingen, San Jose, CA, USA). All cells were run on a ZE5 Cell Analyzer (BD Biosciences, Mountain View, CA, USA) or Attune® NxT (Thermofisher Scientific, Waltham, MA, USA) and analyzed with the FlowJo software, version 10.9.0 (FlowJo LLC., Ashland, OR, USA).

[3] = target: JAK1 (Homo sapiens, UniProt P23458); assay: Z'-LYTE enzyme activity assay (SelectScreen Kinase Profiling), JAK1
JAK1, sequence (P23458 whole entry): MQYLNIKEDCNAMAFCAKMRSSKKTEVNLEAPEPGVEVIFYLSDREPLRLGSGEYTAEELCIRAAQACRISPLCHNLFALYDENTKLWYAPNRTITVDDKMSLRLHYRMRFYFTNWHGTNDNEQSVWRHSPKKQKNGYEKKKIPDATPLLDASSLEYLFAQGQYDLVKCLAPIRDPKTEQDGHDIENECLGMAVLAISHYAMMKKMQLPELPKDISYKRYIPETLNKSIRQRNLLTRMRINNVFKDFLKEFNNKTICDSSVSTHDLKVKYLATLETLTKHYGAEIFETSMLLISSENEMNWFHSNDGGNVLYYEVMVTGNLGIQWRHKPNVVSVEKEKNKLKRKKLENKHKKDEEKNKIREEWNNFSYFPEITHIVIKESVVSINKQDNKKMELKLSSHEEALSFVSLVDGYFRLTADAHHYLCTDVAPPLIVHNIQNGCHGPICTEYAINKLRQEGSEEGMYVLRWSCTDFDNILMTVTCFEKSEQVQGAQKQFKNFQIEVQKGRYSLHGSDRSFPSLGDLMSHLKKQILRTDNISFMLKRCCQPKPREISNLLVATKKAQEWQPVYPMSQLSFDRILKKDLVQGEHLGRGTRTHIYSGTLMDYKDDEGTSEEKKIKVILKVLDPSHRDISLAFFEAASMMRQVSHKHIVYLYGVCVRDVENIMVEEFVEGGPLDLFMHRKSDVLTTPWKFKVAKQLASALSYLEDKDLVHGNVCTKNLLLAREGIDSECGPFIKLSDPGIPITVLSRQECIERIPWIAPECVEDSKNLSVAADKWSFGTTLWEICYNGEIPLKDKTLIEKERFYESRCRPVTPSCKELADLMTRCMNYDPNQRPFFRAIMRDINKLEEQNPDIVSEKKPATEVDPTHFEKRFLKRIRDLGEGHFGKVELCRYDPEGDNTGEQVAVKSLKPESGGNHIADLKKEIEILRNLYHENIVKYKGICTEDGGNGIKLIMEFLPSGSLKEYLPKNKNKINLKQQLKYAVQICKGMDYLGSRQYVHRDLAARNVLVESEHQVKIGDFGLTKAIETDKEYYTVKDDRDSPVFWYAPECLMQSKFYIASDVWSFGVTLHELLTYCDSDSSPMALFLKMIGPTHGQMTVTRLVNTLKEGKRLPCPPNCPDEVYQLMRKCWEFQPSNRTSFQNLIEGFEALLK

[4] = target: JAK2 (Homo sapiens, UniProt O60674); assay: Z'-LYTE enzyme activity assay (SelectScreen Kinase Profiling), JAK2
JAK2, sequence (O60674 whole entry): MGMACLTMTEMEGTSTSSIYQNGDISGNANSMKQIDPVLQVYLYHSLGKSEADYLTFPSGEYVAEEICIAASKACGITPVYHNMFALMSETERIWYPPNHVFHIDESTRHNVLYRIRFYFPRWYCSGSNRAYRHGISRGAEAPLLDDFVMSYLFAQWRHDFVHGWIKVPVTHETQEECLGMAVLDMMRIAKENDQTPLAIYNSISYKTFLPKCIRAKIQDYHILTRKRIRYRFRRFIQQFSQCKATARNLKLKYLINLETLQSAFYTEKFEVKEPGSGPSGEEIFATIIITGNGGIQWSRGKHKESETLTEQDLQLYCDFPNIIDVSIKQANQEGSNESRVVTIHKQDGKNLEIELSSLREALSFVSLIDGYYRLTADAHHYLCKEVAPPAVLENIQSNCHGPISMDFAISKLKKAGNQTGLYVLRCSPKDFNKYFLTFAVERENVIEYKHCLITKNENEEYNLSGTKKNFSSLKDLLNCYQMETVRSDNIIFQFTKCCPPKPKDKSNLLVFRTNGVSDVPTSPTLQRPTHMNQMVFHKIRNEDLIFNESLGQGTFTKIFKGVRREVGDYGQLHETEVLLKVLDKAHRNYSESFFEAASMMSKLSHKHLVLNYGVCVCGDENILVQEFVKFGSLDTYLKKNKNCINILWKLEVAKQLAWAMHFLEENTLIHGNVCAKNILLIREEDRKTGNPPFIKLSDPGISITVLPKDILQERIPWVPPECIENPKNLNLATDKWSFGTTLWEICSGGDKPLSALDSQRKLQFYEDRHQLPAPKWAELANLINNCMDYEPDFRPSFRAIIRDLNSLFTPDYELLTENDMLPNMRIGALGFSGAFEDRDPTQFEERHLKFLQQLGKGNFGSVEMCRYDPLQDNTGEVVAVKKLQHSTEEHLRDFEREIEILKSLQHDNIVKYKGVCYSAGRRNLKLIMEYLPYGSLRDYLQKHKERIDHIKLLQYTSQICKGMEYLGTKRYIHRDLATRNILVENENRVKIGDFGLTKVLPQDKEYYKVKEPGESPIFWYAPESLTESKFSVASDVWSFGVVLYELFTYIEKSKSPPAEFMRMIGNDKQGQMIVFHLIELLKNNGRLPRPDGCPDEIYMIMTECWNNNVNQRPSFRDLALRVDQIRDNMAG

[5] = 20 mg/kg s.c. once daily for 3 weeks from day 3, vs vehicle control
[6] = dose not given, compared to WU4
[7] = 4 mg/kg s.c. once daily for 3 weeks from day 3, vs vehicle control

CCS(=O)(=O)NC1CC2(C1)CC(CC#N)(n1cc(-c3ncnc4[nH]ccc34)cn1)C2 (stereo not drawn) [WU4]
CXCR3 expression on T cells [1]: significant reductions in CXCR3 expression | clinical GvHD scores [2, 5]: did not significantly improve GvHD | overall survival [2, 5]: failed to provide any survival benefits | % of recipient and donor BM-derived APCs in spleens [2]: reducing the % of donor-derived CD11b+ APCs | % of CD80-expressing donor-derived APCs in spleens ([2]; vs vehicle control): reducing the % of donor-derived CD11b+ APCs and CD80-expressing B cells | % of Tregs in the spleens ([2]; vs vehicle control): significantly increasing the % of Tregs | IC50 ([3]; IC50 JAK1, ATP at 1 mM): 520 pM | IC50 ([3]; IC50 JAK1, ATP at app. Km): 453 pM | IC50 ([4]; IC50 JAK2, ATP at 1 mM): 2260 pM | IC50 ([4]; IC50 JAK2, ATP at app. Km): 133 pM

N#CCC1(n2cc(-c3ncnc4[nH]ccc34)cn2)CC2(CC(NS(=O)(=O)C(F)(F)F)C2)C1 (stereo not drawn) [WU6]
CXCR3 expression on T cells [1]: significantly downregulated | clinical GvHD scores [2, 6]: significantly less clinical GvHD scores | overall survival [2, 6]: improved overall survival | percentage of donor-BM-derived B and T cells in the PB ([2]; dose not given, day 27 after allo-HCT, compared to WU4): increased percentage of donor-BM-derived B and T cells | IC50 ([3]; IC50 JAK1, ATP at 1 mM): 3430 pM | IC50 ([3]; IC50 JAK1, ATP at app. Km): 600 pM | IC50 ([4]; IC50 JAK2, ATP at 1 mM): 6960 pM | IC50 ([4]; IC50 JAK2, ATP at app. Km): 347 pM

N#CCC1(n2cc(-c3ncnc4[nH]ccc34)cn2)CCS(=O)(=O)CC1 [WU8]
CXCR3 expression on T cells [1]: significant reductions in CXCR3 expression | clinical GvHD scores [2, 7]: less GvHD | overall survival [2, 7]: mild trend towards improved survival | clinical GvHD scores [2, 5]: improved clinical GvHD scores | overall survival [2, 5]: significantly increased overall survival | % of recipient and donor BM-derived APCs in spleens [2]: reduced the % of both the residual recipient and donor BM-derived APCs | % of CD80-expressing donor-derived APCs in spleens ([2]; vs vehicle control): decreased | % of Tregs in the spleens ([2]; vs vehicle control): trend towards higher frequencies of Tregs | IC50 ([3]; IC50 JAK1, ATP at 1 mM): 7150 pM | IC50 ([3]; IC50 JAK1, ATP at app. Km): 1070 pM | IC50 ([4]; IC50 JAK2, ATP at 1 mM): 14900 pM | IC50 ([4]; IC50 JAK2, ATP at app. Km): 535 pM
